Test results reported in the NIST ThermoML archive (doi:10.1021/je100102q).
Numbers after ± are expanded uncertainties.

Details: Gas, isochoric method

FCC(F)(F)F [1,1,1,2-tetrafluoroethane]
Details | molar volume [m3/mol]
253.09 K, 107.6 kPa | 0.01875 ± 0.00016
272.92 K, 158.9 kPa | 0.01358 ± 0.00016
282.69 K, 329.1 kPa | 0.006516 ± 0.00016
282.8 K, 121.4 kPa | 0.01878 ± 0.00016
292.87 K, 171.9 kPa | 0.0136 ± 0.00016
292.89 K, 126.2 kPa | 0.01878 ± 0.00016
302.58 K, 357.7 kPa | 0.006522 ± 0.00016
313.1 K, 135.4 kPa | 0.0188 ± 0.00016
313.1 K, 184.9 kPa | 0.01361 ± 0.00016
323.07 K, 386.5 kPa | 0.006528 ± 0.00016
333.03 K, 144.3 kPa | 0.01882 ± 0.00016
333.03 K, 1610.8 kPa | 0.001248 ± 0.00016
333.05 K, 197.5 kPa | 0.01362 ± 0.00016
342.96 K, 413.7 kPa | 0.006533 ± 0.00016
343 K, 1706.9 kPa | 0.001248 ± 0.00016
352.93 K, 153.2 kPa | 0.01883 ± 0.00016
352.94 K, 1798.6 kPa | 0.001249 ± 0.00016
353.04 K, 210 kPa | 0.01363 ± 0.00016
362.89 K, 440.7 kPa | 0.006539 ± 0.00016
362.9 K, 1888.6 kPa | 0.001249 ± 0.00016
372.82 K, 454 kPa | 0.006542 ± 0.00016
372.84 K, 162.1 kPa | 0.01885 ± 0.00016
372.87 K, 1976.6 kPa | 0.00125 ± 0.00016
372.99 K, 222.4 kPa | 0.01364 ± 0.00016

C=C(F)C(F)(F)F [2,3,3,3-tetrafluoro-1-propene]
Details | molar volume [m3/mol]
243.07 K, 98 kPa | 0.01911 ± 0.00016
243.08 K, 84.5 kPa | 0.02278 ± 0.00016
248.02 K, 86.5 kPa | 0.02278 ± 0.00016
249.15 K, 87 kPa | 0.02278 ± 0.00016
253.01 K, 105.1 kPa | 0.01912 ± 0.00016
253.07 K, 88.5 kPa | 0.02278 ± 0.00016
258.03 K, 90.4 kPa | 0.02279 ± 0.00016
262.93 K, 171.7 kPa | 0.01189 ± 0.00016
262.97 K, 109.8 kPa | 0.01913 ± 0.00016
263.08 K, 92.4 kPa | 0.02279 ± 0.00016
267.98 K, 94.2 kPa | 0.0228 ± 0.00016
272.84 K, 179.3 kPa | 0.01189 ± 0.00016
272.92 K, 114.4 kPa | 0.01914 ± 0.00016
273.04 K, 96.2 kPa | 0.0228 ± 0.00016
277.99 K, 98 kPa | 0.02281 ± 0.00016
282.62 K, 118.8 kPa | 0.01914 ± 0.00016
282.68 K, 186.6 kPa | 0.0119 ± 0.00016
282.75 K, 430.2 kPa | 0.004676 ± 0.00016
282.95 K, 99.9 kPa | 0.02281 ± 0.00016
283 K, 394.6 kPa | 0.005292 ± 0.00016
287.79 K, 101.7 kPa | 0.02282 ± 0.00016
287.93 K, 447.1 kPa | 0.004677 ± 0.00016
287.99 K, 403.8 kPa | 0.005293 ± 0.00016
292.58 K, 193.9 kPa | 0.0119 ± 0.00016
292.76 K, 103.6 kPa | 0.02282 ± 0.00016
292.81 K, 457.2 kPa | 0.004678 ± 0.00016
292.95 K, 412.8 kPa | 0.005295 ± 0.00016
292.99 K, 123.5 kPa | 0.01915 ± 0.00016
293.1 K, 508.2 kPa | 0.004171 ± 0.00016
297.8 K, 105.5 kPa | 0.02283 ± 0.00016
297.89 K, 467.6 kPa | 0.00468 ± 0.00016
298.08 K, 422.1 kPa | 0.005296 ± 0.00016
302.7 K, 201.4 kPa | 0.01191 ± 0.00016
302.91 K, 477.9 kPa | 0.004681 ± 0.00016
303.09 K, 431.1 kPa | 0.005297 ± 0.00016
303.11 K, 703.6 kPa | 0.002968 ± 0.00016
303.12 K, 107.4 kPa | 0.02284 ± 0.00016
303.12 K, 128.1 kPa | 0.01916 ± 0.00016
303.12 K, 531.3 kPa | 0.004173 ± 0.00016
308.1 K, 439.9 kPa | 0.005298 ± 0.00016
308.11 K, 109.3 kPa | 0.02284 ± 0.00016
308.11 K, 488.4 kPa | 0.004682 ± 0.00016
313.09 K, 448.7 kPa | 0.005299 ± 0.00016
313.11 K, 111.2 kPa | 0.02285 ± 0.00016
313.11 K, 498.5 kPa | 0.004683 ± 0.00016
313.11 K, 554 kPa | 0.004174 ± 0.00016
313.11 K, 738.1 kPa | 0.002969 ± 0.00016
313.12 K, 132.7 kPa | 0.01917 ± 0.00016
313.12 K, 209 kPa | 0.01192 ± 0.00016
318.09 K, 457.5 kPa | 0.0053 ± 0.00016
318.09 K, 508.5 kPa | 0.004684 ± 0.00016
318.1 K, 113 kPa | 0.02285 ± 0.00016
318.11 K, 861.5 kPa | 0.002534 ± 0.00016
323.07 K, 518.3 kPa | 0.004685 ± 0.00016
323.08 K, 114.9 kPa | 0.02286 ± 0.00016
323.08 K, 466.1 kPa | 0.005302 ± 0.00016
323.09 K, 216.2 kPa | 0.01192 ± 0.00016
323.09 K, 576.5 kPa | 0.004176 ± 0.00016
323.09 K, 771.8 kPa | 0.00297 ± 0.00016
323.1 K, 137.1 kPa | 0.01918 ± 0.00016
328.06 K, 474.7 kPa | 0.005303 ± 0.00016
328.06 K, 528.3 kPa | 0.004686 ± 0.00016
328.06 K, 901.7 kPa | 0.002535 ± 0.00016
328.07 K, 116.8 kPa | 0.02286 ± 0.00016
333.04 K, 118.8 kPa | 0.02286 ± 0.00016
333.04 K, 483.3 kPa | 0.005304 ± 0.00016
333.04 K, 538.1 kPa | 0.004687 ± 0.00016
333.05 K, 537.8 kPa | 0.004687 ± 0.00016
333.05 K, 598.7 kPa | 0.004178 ± 0.00016
333.05 K, 804.7 kPa | 0.002972 ± 0.00016
333.06 K, 141.6 kPa | 0.01919 ± 0.00016
333.06 K, 223.4 kPa | 0.01192 ± 0.00016
338 K, 1538.8 kPa | 0.001325 ± 0.00016
338.01 K, 491.8 kPa | 0.005305 ± 0.00016
338.02 K, 941.5 kPa | 0.002536 ± 0.00016
338.03 K, 120.6 kPa | 0.02287 ± 0.00016
338.03 K, 547.6 kPa | 0.004688 ± 0.00016
342.99 K, 146.1 kPa | 0.0192 ± 0.00016
342.99 K, 500.3 kPa | 0.005306 ± 0.00016
343 K, 122.5 kPa | 0.02287 ± 0.00016
343 K, 230.6 kPa | 0.01193 ± 0.00016
343.01 K, 557.3 kPa | 0.004689 ± 0.00016
343.01 K, 620.6 kPa | 0.00418 ± 0.00016
343.02 K, 837.4 kPa | 0.002973 ± 0.00016
347.94 K, 1624.6 kPa | 0.001325 ± 0.00016
347.94 K, 2217.8 kPa | 0.000789 ± 0.00016
347.96 K, 508.8 kPa | 0.005307 ± 0.00016
347.97 K, 124.3 kPa | 0.02288 ± 0.00016
347.98 K, 980.2 kPa | 0.002537 ± 0.00016
347.98 K, 2157.7 kPa | 0.000833 ± 0.00016
347.99 K, 567 kPa | 0.00469 ± 0.00016
352.91 K, 517.2 kPa | 0.005309 ± 0.00016
352.91 K, 2303.2 kPa | 0.000789 ± 0.00016
352.96 K, 126.1 kPa | 0.02288 ± 0.00016
352.96 K, 576.6 kPa | 0.004691 ± 0.00016
352.96 K, 642.4 kPa | 0.004182 ± 0.00016
352.96 K, 869.4 kPa | 0.002974 ± 0.00016
352.98 K, 150.6 kPa | 0.0192 ± 0.00016
352.98 K, 237.7 kPa | 0.01194 ± 0.00016
352.99 K, 2237.2 kPa | 0.000833 ± 0.00016
357.86 K, 2385.6 kPa | 0.000789 ± 0.00016
357.88 K, 525.6 kPa | 0.00531 ± 0.00016
357.92 K, 128 kPa | 0.02289 ± 0.00016
357.93 K, 586.2 kPa | 0.004692 ± 0.00016
357.93 K, 1018.7 kPa | 0.002538 ± 0.00016
357.95 K, 1709 kPa | 0.001326 ± 0.00016
357.95 K, 2314.1 kPa | 0.000833 ± 0.00016
362.83 K, 2467.7 kPa | 0.000789 ± 0.00016
362.86 K, 534 kPa | 0.005311 ± 0.00016
362.89 K, 129.8 kPa | 0.02289 ± 0.00016
362.89 K, 2389.2 kPa | 0.000833 ± 0.00016
362.92 K, 595.8 kPa | 0.004693 ± 0.00016
362.92 K, 664 kPa | 0.004184 ± 0.00016
362.92 K, 3067.5 kPa | 0.000251
362.93 K, 155 kPa | 0.01921 ± 0.00016
362.93 K, 901.2 kPa | 0.002976 ± 0.00016
362.96 K, 244.9 kPa | 0.01194 ± 0.00016
367.8 K, 2548.9 kPa | 0.000789 ± 0.00016
367.83 K, 542.5 kPa | 0.005312 ± 0.00016
367.87 K, 131.9 kPa | 0.0229 ± 0.00016
367.88 K, 1057 kPa | 0.002539 ± 0.00016
367.88 K, 2463.9 kPa | 0.000834 ± 0.00016
367.89 K, 605.3 kPa | 0.004694 ± 0.00016
367.92 K, 1791.4 kPa | 0.001326 ± 0.00016
367.92 K, 3386.9 kPa | 0.000251
372.8 K, 2629.5 kPa | 0.000789 ± 0.00016
372.81 K, 550.9 kPa | 0.005313 ± 0.00016
372.82 K, 133.8 kPa | 0.0229 ± 0.00016
372.84 K, 932.4 kPa | 0.002977 ± 0.00016
372.85 K, 1075.9 kPa | 0.00254 ± 0.00016
372.85 K, 2537.2 kPa | 0.000834 ± 0.00016
372.87 K, 614.8 kPa | 0.004695 ± 0.00016
372.88 K, 159.4 kPa | 0.01922 ± 0.00016
372.88 K, 252 kPa | 0.01195 ± 0.00016
372.88 K, 685.4 kPa | 0.004185 ± 0.00016
372.88 K, 3715.9 kPa | 0.000251
